Patent US4293713A, “Novel 1,1,3,5-substituted biuret compound and a pharmaceutical composition containing the same” (priority 1979, dated 1981)
Where two headings read alike, the source gives them in different places.

Assays:
[1] = test system: ddy strain of male mice; test: Analgesic activity, Haffner method; format: in vivo, mouse (ddy strain; details: with threshold morphine hydrochloride s.c.; for Analgesic activity, Haffner method, 50% effective dose, ED50 (values with Δ marks): oral, range in parentheses
Experimental: (§1) Next, several tests for determining the pharmacological properties, in that acute toxicity, anti-pyretic activity, analgesic activity and anti-inflammatory activity of the present 1,1,3,5-substituted biuret compounds of the formula (1) were conducted and the test results are shown in Table (2). In the tests, each compounds to be tested was used as a suspension in 0.25% carboxymethylcellulose solution. Methods for testing are explained as follows:
According to the modified method reported by Fujimura et al., [Bulletin of the Institute for Chemical Research, Kyoto University, No. 25, pp. 36 (1951)], the ddy strain of male mice (body weight, 20-25 g) were used as test animals. The mice were fasted overnight, 100 mg/kg body weight of the test compound was administered orally, then 45 minutes after the administration, the threshold amount (1.5-2.5 mg/kg body weight) of morphine hydrochloride was injected subcutaneously. Then 1-hour pain reaction of the mouse caused by a clamp was observed. Analgesic activity of the test compound was calculated as the inhibitory ratio (%). In Table 2, the values in parentheses show the data obtained from the test by using the dosage other than 100 mg/kg body weight. Further, the values indicated with Δ marks show 50% effective dose, ED50 (mg/kg body weight).

[2] = test system: Wistar strain of male rats; test: Anti-pyretic activity (dry-yeast induced fever); format: in vivo, rat (Wistar strain; details: oral, up to 4 hours after administration, dose not given
Experimental: as §1
According to the method reported by Tanabe [Folia Pharmacologia Japonica, Vol. 73, pp. 803 (1977)], the Wistar strain of male rats (150-180 g body weight) were used as test animals. The rats were fasted overnight, and 1 ml/100 g (body weight) of 10% dry-yeast suspension were subcutaneously injected on the back of the rats. Five hours after the injection, the test compound was administered orally, then the body temperature of the rat was measured at time sequences. Anti-pyretic activity of the test compound was determined as the FI (febril index) by integrating pyrogenetic curve up to 4 hours after the administration of the test compound with time, and indicated as inhibitory ratio (%) shown by the following formula, [formula]

[3] = Acute toxicity (oral, 7 days observation); format: in vivo; details: mouse, in vivo, read-out: Acute toxicity, 50% lethal dose, LD50 (values with Δ marks)
Experimental: as §1
(§2) The ddy strain of male mice (body weight, 20-25 g) were used as test animals. The mice were fasted overnight and the compound to be tested was administered orally. […] The lethal dose (mg/kg, body weight) of the test compound was determined in connection with the death number of mice/the number of mice tested. In Table 2, the values indicated with Δ marks are 50% lethal dose, LD50 (mg/kg, body weight).

[4] = test system: ddy strain of male mice; test: Analgesic activity, acetic acid-induced stretching method; format: in vivo, mouse (ddy strain; details: Mus musculus, po; for ED50: read-out: Analgesic activity, acetic acid-induced stretching method, 50% effective dose, ED50 (values with Δ marks)
Experimental: as §1
According to the method reported by Koster et al., [Fed. Proc., Vol. 18, pp. 412 (1959)], the ddy strain of male mice (body weight, 20-25 g) were used as test animals. The mice were fasted overnight, 100 mg/kg body weight of the test compound was administered orally, then 1 hour after the administration, 0.2 ml of 0.7% acetic acid solution was injected intraperitoneally. The acetic acid-induced stretching symptom of mouse was observed. Analgesic activity of the test compound was calculated as the inhibitory ratio (%). In Table 2, the values in Parentheses show the data obtained from the test by using the dosage other than 100 mg/kg body weight. Further, the values indicated with Δ marks show 50% effective dose, ED50 (mg/kg body weight).

[5] = test system: Wistar strain of male rats; test: Anti-inflammatory activity, acute carrageenin-induced inflammatory test; format: in vivo, rat (Wistar strain; details: Rattus norvegicus
Experimental: as §1
According to the method of acute carrageenin-induced inflammatory test [Folia Pharmacologia Japonica, Vol. 56, pp. 575 (1960)], the Wistar strain of male rats (body weight, 150-180 g) were used as test animals. The rats were fasted overnight, 100 mg/kg body weight of the test compound was administered orally, then 1 hour after the administration, 0.1 ml of 1% carrageenin solution, as the inflammation inducing agent, was injected subcutaneously to the hindpaw of the rat and the volume of the hindpaw was measured at time sequences. Anti-inflammatory activity of the test compound was calculated as inflammation inhibitory ratio (%) at 3 hours after the injection of the inflammation inducing agent.

[6] = test system: ddy strain of male mice; test: Acute toxicity (oral, 7 days observation); format: in vivo; details: oral, mice, 7 days
Experimental: as §1, §2

[7] = po, 2 h, read-out: Anti-inflammatory activity, inflammation inhibitory ratio (2 hours value)
[8] = read-out: Analgesic activity, acetic acid-induced stretching method, inhibitory ratio
[9] = 100 mg/kg oral, rats, 3 hours after carrageenin, read-out: Anti-inflammatory activity, inflammation inhibitory ratio
[10] = po, 3 h, read-out: Anti-inflammatory activity, inflammation inhibitory ratio
[11] = 100 mg/kg oral, rats, 2 hours value, read-out: Anti-inflammatory activity, inflammation inhibitory ratio (2 hours value)

SMILES | Anti-pyretic activity, inhibitory ratio of febril index (FI) [2] | LD50 at 168 h ([3]; oral, mice, 7 days) | Analgesic activity, Haffner method, inhibitory ratio ([1]; 100 mg/kg oral) | inhibition in vivo at 100 mg/kg [4, 8] | also measured
CN(C)C(=O)N(C)C(=O)Nc1ccc(Br)cc1 [Compound No. 11, 1,1,3-Trimethyl-5-(4-bromophenyl)biuret] | 103% | 1350 mg/kg | – | – | Analgesic activity, Haffner method, 50% effective dose, ED50 (values with Δ marks) [1]: 74(49-113) mg/kg; ED50 [4]: 60 mg/kg; inhibition in vivo at 100 mg/kg [5, 7]: 48%
CN(C)C(=O)N(C)C(=O)Nc1c(Cl)cccc1Cl [compound 9, 1,1,3-Trimethyl-5-(2,6-dichlorophenyl)biuret] | 29% | 1100 mg/kg | 50% | 50% | inhibition in vivo at 100 mg/kg [5, 9]: 25%
CN(C)C(=O)N(C)C(=O)Nc1ccc(F)cc1 [Compound No. 3, 1,1,3-Trimethyl-5-(4-fluorophenyl)biuret] | 61% | 930 mg/kg | 62.5% | 87.5% | inhibition in vivo at 100 mg/kg [5, 9]: 37%
COc1ccc(NC(=O)N(C)C(=O)N(C)C)cc1 [Compound No. 17, 1,1,3-Trimethyl-5-(4-methoxyphenyl)biuret] | 75% | 1800 mg/kg | – | – | Analgesic activity, Haffner method, 50% effective dose, ED50 (values with Δ marks) [1]: 42 to 153 mg/kg; ED50 [4]: 39 mg/kg; inhibition in vivo at 100 mg/kg [5, 10]: 33%
CN(C)C(=O)N(C)C(=O)Nc1ccccc1 [Compound No. 1, 1,1,3-Trimethyl-5-phenylbiuret] | 80% | 1710 mg/kg | – | – | Analgesic activity, Haffner method, 50% effective dose, ED50 (values with Δ marks) [1]: 68(52-88) mg/kg; ED50 [4]: 75 mg/kg; inhibition in vivo at 100 mg/kg [5, 10]: 59%
CN(C)C(=O)N(C)C(=O)Nc1cccc(Cl)c1 [compound 6, 1,1,3-Trimethyl-5-(3-chlorophenyl)biuret] | 43% | 1480 mg/kg | – | 62.5% | Analgesic activity, Haffner method, inhibitory ratio ([1]; 200 mg/kg oral): 75%; inhibition in vivo at 100 mg/kg [5, 7]: 30%
CN(C)C(=O)N(C)C(=O)Nc1ccc(Cl)cc1 [Compound No. 7, 1,1,3-trimethyl-5-p-chlorophenylbiuret] | 84% | 1200 mg/kg | – | – | Analgesic activity, Haffner method, 50% effective dose, ED50 (values with Δ marks) [1]: 20(11-35) mg/kg; ED50 [4]: 12 mg/kg; inhibition in vivo at 100 mg/kg [5, 10]: 47%
CCN(C)C(=O)N(C)C(=O)Nc1ccccc1 [compound 33, 1-Ethyl-1,3-dimethyl-5-phenylbiuret] | 49% | 1290 mg/kg | – | – | inhibition in vivo at 80 mg/kg [4, 8]: 50%; inhibition in vivo at 100 mg/kg [5, 9]: 34%
CN(C)C(=O)N(C)C(=O)NC1CCCCC1 [compound 29, 1,1,3-Trimethyl-5-cychlohexylbiuret] | – | – | 25% | – | LD50 at 168 h ([3]; po): 1450 mg/kg; inhibition in vivo at 200 mg/kg [4, 8]: 87.5%; inhibition in vivo at 100 mg/kg [5, 11]: 24%
Cc1ccccc1NC(=O)N(C)C(=O)N(C)C [compound 20, 1,1,3-Trimethyl-5-(2-methylphenyl)biuret] | 41% | 1000 mg/kg | 50% | 37.5% | inhibition in vivo at 100 mg/kg [5, 10]: 29%
CN(C)C(=O)N(C)C(=O)Nc1ccccc1C(F)(F)F [compound 12, 1,1,3-Trimethyl-5-(2-trifluoromethylphenyl)biruet] | 65% | – | 37.5% | 12.5% | Acute toxicity, death number of mice/number of mice tested ([6]; 1000 mg/kg): 1/4; inhibition in vivo at 100 mg/kg [5, 10]: 66%
Cc1cccc(C)c1NC(=O)N(C)C(=O)N(C)C [compound 24, 1,1,3-Trimethyl-5-(2,6-dimethylphenyl)biuret] | 69% | 595 mg/kg | 37.5% | 75% | –
CCCN(C)C(=O)N(C)C(=O)Nc1ccccc1 [Compound No. 34, 1,3-dimethyl-1-propyl-5-phenylbiuret] | 44% | – | 37.5% | – | Acute toxicity, death number of mice/number of mice tested ([6]; 1000 mg/kg): 1/4; Acute toxicity, death number of mice/number of mice tested ([6]; 2000 mg/kg): 4/4; inhibition in vivo at 60 mg/kg [4, 8]: 75%; inhibition in vivo at 100 mg/kg [5, 7]: 26%
CN(C)C(=O)N(C)C(=O)Nc1ccccc1F [Compound No. 2, 1,1,3-Trimethyl-5-(2-fluorophenyl)biuret] | 76% | – | 75% | 62.5% | Acute toxicity, death number of mice/number of mice tested ([6]; 1000 mg/kg): 1/4; Acute toxicity, death number of mice/number of mice tested ([6]; 2000 mg/kg): 4/4; inhibition in vivo at 100 mg/kg [5, 9]: 63%
Cc1ccc(NC(=O)N(C)C(=O)N(C)C)cc1 [Compound No. 22, 1,1,3-Trimethyl-5-(4-methylphenyl)biuret] | 52% | – | – | – | Analgesic activity, Haffner method, 50% effective dose, ED50 (values with Δ marks) [1]: 80(42-152) mg/kg; Acute toxicity, death number of mice/number of mice tested ([6]; 2000 mg/kg): 0/4; ED50 [4]: 33 mg/kg; inhibition in vivo at 100 mg/kg [5, 7]: 23%
CN(C)C(=O)N(C)C(=O)Nc1ccccc1Cl [compound 5, 1,1,3-Trimethyl-5-(2-chlorophenyl)biuret] | 66% | – | 37.5% | 50% | Acute toxicity, death number of mice/number of mice tested ([6]; 2000 mg/kg): 0/4; inhibition in vivo at 100 mg/kg [5, 9]: 38%
CN(C)C(=O)N(C)C(=O)Nc1ccc(N(C)C)cc1 [compound 14, 1,1,3-Trimethyl-5-(4-dimethylaminophenyl)biuret] | 26% | – | 50% | 62.5% | Acute toxicity, death number of mice/number of mice tested ([6]; 2000 mg/kg): 0/4; inhibition in vivo at 100 mg/kg [5, 11]: 32%
